Experiments:
[1] = system: RSV, Long strain; assay: virus titer Reduction (VTR) assay, progeny virus TCID50 in HEp-2 cells; type: cell-based, respiratory syncytial virus (RSV); details: human respiratory syncytial virus, 48 h; for log reduction at 3 µg/mL: 3 ug/ml compound, read-out: TCID-50 Reduction @ 3 ug/ml; for log reduction at 6 µg/mL: 6 ug/ml compound, read-out: TCID-50 Reduction 6 @ ug/ml; for log reduction at 12 µg/mL: 12 ug/ml compound, read-out: TCID-50 Reduction 12 @ ug/ml; for log reduction at 25 µg/mL: 25 ug/ml compound, read-out: TCID-50 Reduction 25 @ ug/ml; for log reduction at 5 µg/mL: 5 ug/ml compound, read-out: TCID-50 Reduction @ 5 ug/ml
Method: Four concentrations of each compound were evaluated (Table 3). Briefly, the four concentrations of test compounds, HEp-2 cells (8×10^3 per well) and RSV, Long strain (MOI=0.9) were plated in 96 well microtiter plates. The plates were incubated for 48 hours. Fifteen (15) μl of 10-fold serial dilution of progeny virus containing medium from respective samples (test compound treated or untreated) was transferred to infect fresh HEp-2 cells (2×10^3 cells per well) in a 384 well format. Plates were incubated for an additional 6 days and luminescence was measured using Cell Titer-Glo reagent (Promega Inc.) to determine cell viability. […] A well showing lesser than 50% cell viability was regarded as positive for virus infection. Four replicates for each virus dilution were analyzed and the number of virus positive wells (out of 4) was plotted versus the dilution. TCID50 was calculated to be the dilution that produced two positive wells out of four using ActivityBase software (IDBS, Inc, Guilford, UK).

[2] = system: respiratory syncytial virus (RSV) strain Long; assay: microbe, parasite or virus in culture; details: human respiratory syncytial virus, HEp-2, 144 h
[3] = cytotoxicity assay (percent viability of HEp-2 cells, Cell Titer-Glo); details: human, HEp-2 cells

Structure (SMILES)	EC50 [2]	CC50 at 6 days [3]	also measured
Cc1ccc(S(=O)(=O)Nc2ccc(NC(=O)c3c(F)c(F)c(F)c(F)c3F)cc2)cc1 [AB00314111]	6.97 µg/mL	> 25 µg/mL	log reduction at 3 µg/mL [1]: 1; log reduction at 6 µg/mL [1]: 1.01; log reduction at 12 µg/mL [1]: 1.41; log reduction at 25 µg/mL [1]: 3.05
O=C(CCSc1ccccc1)Nc1ccccc1C(=O)O [AB00289457]	2.97 µg/mL	> 25 µg/mL	log reduction at 3 µg/mL [1]: 1; log reduction at 6 µg/mL [1]: 4.9; log reduction at 12 µg/mL [1]: 6.73; log reduction at 25 µg/mL [1]: 6.57
O=C(Nc1ccc(Nc2ccccc2)cc1)c1ccccc1Cl [AB00280499]	6.6 µg/mL	> 25 µg/mL	log reduction at 3 µg/mL [1]: 2.55; log reduction at 6 µg/mL [1]: 2.38; log reduction at 12 µg/mL [1]: 3.69; log reduction at 25 µg/mL [1]: 2.96
CC(=O)N(CCCCN1C(=O)c2ccccc2C1=O)c1ccc(C)cc1 [AB00300194]	9.01 µg/mL	> 25 µg/mL	log reduction at 3 µg/mL [1]: 1.41; log reduction at 5 µg/mL [1]: 1.83; log reduction at 12 µg/mL [1]: 2.04; log reduction at 25 µg/mL [1]: 2.56
CCCn1cnc2sc(-c3ccccc3)cc2c1=O [AB00298501]	3.14 µg/mL	> 25 µg/mL	log reduction at 3 µg/mL [1]: 1.82; log reduction at 6 µg/mL [1]: 2.38; log reduction at 12 µg/mL [1]: 2.9; log reduction at 25 µg/mL [1]: 3.78
CCCn1c(COc2ccccc2OC)nc2ccccc21 [AB00296415]	4.88 µg/mL	> 25 µg/mL	log reduction at 3 µg/mL [1]: 1.74; log reduction at 5 µg/mL [1]: 2.48; log reduction at 12 µg/mL [1]: 2.59; log reduction at 25 µg/mL [1]: 5.9
O=C(Nc1ccccc1)N1CCc2cc([N+](=O)[O-])ccc21 [AB00705281]	–	–	log reduction at 5 µg/mL [1]: 4.75; log reduction at 12 µg/mL [1]: 4.2; log reduction at 25 µg/mL [1]: 5.56; log reduction at 50 µg/mL ([1]; 50 ug/ml compound, read-out: TCID-50 Reduction @ 50 ug/ml): 5.9
Cc1cc(C)cc(OCC(O)CNC(C)c2ccccc2)c1 (centres unmarked) [AB00283699]	12.9 µg/mL	> 25 µg/mL	–
Cc1cnc(NC(=O)c2ccc(Cl)cc2Cl)s1 [AB00276221]	17.6 µg/mL	> 25 µg/mL	–
Nc1ccc2oc(-c3cc(F)c(F)cc3Cl)nc2c1 [AB00311411]	22.7 µg/mL	> 25 µg/mL	–
COC(=O)c1c(-c2ccccc2)csc1NC(=O)c1c(-c2ccccc2)noc1C [AB00310910]	1.15 µg/mL	> 25 µg/mL	–
CCCCSc1nc(=O)c(C(c2ccccc2)c2ccccc2)c(O)[nH]1 [AB00291408]	24.2 µg/mL	> 25 µg/mL	–
O=C(CCN1C(=O)c2cccc3cccc(c23)C1=O)N1CCc2ccccc2C1 [AB00315918]	15.4 µg/mL	> 25 µg/mL	–
CC1=CC(C)(C)Nc2ccc(OC(=O)C(Cc3ccccc3)N3C(=O)C4CCCCC4C3=O)cc21 (centres unmarked) [AB00299290]	15.8 µg/mL	> 25 µg/mL	–
O=C(Nc1cccc(C(F)(F)F)c1)c1ccccc1Cl [AB00276634]	15.8 µg/mL	> 25 µg/mL	–
COC(=O)Cc1ccc2c3ccccc3n(C)c2c1 [AB00299031]	21.7 µg/mL	> 25 µg/mL	–
Cc1nc(N)sc1-c1csc(Nc2ccccn2)n1 [AB00280085]	18.9 µg/mL	> 25 µg/mL	–
O=c1[nH]c(=O)n(Cc2ccc([N+](=O)[O-])cc2)cc1F [AB00173190]	21 µM	> 50 µM	–
C=CCNc1cc(N2CCN(C(=O)c3ccc(C)cc3)CC2)ccc1[N+](=O)[O-] [AB00319534]	13.8 µg/mL	> 25 µg/mL	–
O=C(Nc1ccc2oc(-c3ccccc3Br)nc2c1)c1ccco1 [AB00294890]	22.5 µg/mL	> 25 µg/mL	–
CCOC(=O)C1=C(C)Nc2ncnn2C1c1ccc(OC)c(OCC)c1 (centres unmarked) [AB00335740]	21.1 µg/mL	> 25 µg/mL	–
CC(C)(C)c1ccc(C(=O)N2CCC(C(=O)Nc3ccc4c(c3)OCO4)CC2)cc1 [AB00317272]	22.3 µg/mL	> 25 µg/mL	–
COc1cc([N+](=O)[O-])ccc1NC(=O)C1CC(Cl)=CCC1C(=O)O (centres unmarked) [AB00296680]	12.9 µg/mL	> 25 µg/mL	–
N#C/C(=C\c1ccc(-c2ccc(Cl)c(Cl)c2)o1)C(N)=S [AB00344427]	17.9 µg/mL	> 25 µg/mL	–
CC(C)CCCC(C)C1CC[C@@H]2[C@@H]3CC[C@@H]4CC(CCC=C(c5cc(Cl)c(O)c(C(=O)O)c5)c5cc(Cl)c(O)c(C(=O)O)c5)CC[C@]4(C)[C@@H]3CC[C@]12C (some centres unmarked) [AB00443953]	21.3 µM	> 50 µM	–
Cc1ccc2nc(-c3ccccc3)c(CN3CCCC3)c(O)c2c1 [AB00293683]	18.8 µg/mL	> 25 µg/mL	–
COc1ccccc1OCC(=O)Nc1ccc(Br)cc1C(=O)O [AB00290004]	23.2 µg/mL	> 25 µg/mL	–
Cc1nc(Nc2ccccc2Cl)sc1C(=O)Nc1ccccc1 [AB00299380]	10.4 µg/mL	> 25 µg/mL	–
Cc1ccc(-c2csc3nc[nH]c(=O)c23)cc1C [AB00297372]	10.9 µg/mL	> 25 µg/mL	–

Second part, led by results:

EC50 [2]	Structure (SMILES)	CC50 at 6 days [3]	also measured
9.42 µg/mL	O=C(Nc1cccc(NC(=O)C23CC4CC(CC(C4)C2)C3)c1)c1ccccc1F [AB00359685]	> 25 µg/mL	log reduction at 3 µg/mL [1]: 1; log reduction at 6 µg/mL [1]: 2.13; log reduction at 12 µg/mL [1]: 4.4; log reduction at 25 µg/mL [1]: 4.94
2.18 µg/mL	COCc1cc(C)nc(SCC(=O)Nc2ccccc2N2CCOCC2)c1C#N [AB00345103]	> 25 µg/mL	log reduction at 3 µg/mL [1]: 1; log reduction at 6 µg/mL [1]: 1.31; log reduction at 12 µg/mL [1]: 3.2; log reduction at 25 µg/mL [1]: 2.86
19.6 µg/mL	O=C(NC1=NCCS1)c1cc2c(s1)CCCCCC2 [AB00367559]	> 25 µg/mL	–
10.4 µg/mL	CCn1c(=O)n(CC)c2cc(NC(=O)c3ccccc3Cl)c(Br)cc21 [AB00369510]	> 25 µg/mL	–
22.5 µg/mL	O=S(=O)(Nc1ccc(-c2cn3cccnc3n2)cc1)c1cc(Cl)ccc1Cl [AB00370838]	> 25 µg/mL	–
20.2 µg/mL	O=C(Nc1c(F)cc(F)cc1Br)c1ccc(Cl)s1 [AB00366410]	> 25 µg/mL	–
17 µg/mL	COc1ccc(S(=O)(=O)N2CCC(C(=O)N3CCN(c4ccccc4)CC3)CC2)cc1Cl [AB00362388]	> 25 µg/mL	–
15.1 µM	NCc1cn2ccccc2n1 [AB00877180]	> 50 µM	–
49.1 µM	Cc1ccc(-c2csc(NC(=O)COC(=O)c3cccc(Cl)c3)n2)cc1C [AB00720414]	> 50 µM	–
11.4 µg/mL	CC1CCCCN1C(=O)c1ccc(NC(=O)c2ccccc2Cl)cc1 (centres unmarked) [AB00359707]	> 25 µg/mL	–
13.3 µg/mL	CC1(C)Cc2c(sc(NC(=O)c3ccccc3Br)c2C(N)=O)CO1 [AB00363547]	> 25 µg/mL	–
1.97 µg/mL	c1coc(-c2nn3c(Cn4nnc5ccccc54)nnc3s2)c1 [AB00370063]	> 25 µg/mL	–
18.1 µM	C/C(N)=C(/C#N)C(=O)CSc1nc2sc3c(c2c(=O)n1-c1ccccc1C(F)(F)F)CCCCC3 [AB00728757]	> 50 µM	–
23.4 µM	C/C(N)=C(/C#N)C(=O)COC(=O)c1ccccc1SCC(=O)NC1CCCCCCC1 [AB00723775]	> 50 µM	–
11.6 µg/mL	CCOC(=O)c1ccc(NC(=O)Nc2ccccc2OC)cc1 [AB00365318]	> 25 µg/mL	–
21.9 µM	CCOC(=O)C1=C(C)NC(C)=C(C(=O)OCC)C1C(=O)OCC(=O)Nc1c(Cl)cccc1Cl [AB00712684]	> 50 µM	–
20.1 µg/mL	Cc1ccc(NC(=O)CN2CCCC2)c(Br)c1 [AB00358122]	> 25 µg/mL	–
18.4 µg/mL	COc1ccc(-c2ccc(-c3noc(-c4ccco4)n3)c(OC)n2)cc1 [AB00353001]	> 25 µg/mL	–
21.1 µg/mL	Fc1cnc(N2CCOCC2)nc1N1CCc2ccccc21 [AB00362810]	> 25 µg/mL	–
26.2 µM	CC(=O)Nc1cc(C(=O)CSc2nc3ccccc3n2C)ccc1O [AB00766545]	> 50 µM	–
38.8 µM	Clc1ccccc1OCc1noc(-c2cccs2)n1 [AB00877365]	> 50 µM	–
22.2 µM	CCN(c1ccccc1)S(=O)(=O)c1cccc(C(=O)Nc2nccs2)c1 [AB00739796]	> 50 µM	–
31.9 µM	Cc1ccc2c(Cn3cnc4scc(-c5ccc(Br)cc5)c4c3=O)cc(=O)oc2c1 [AB00796961]	> 50 µM	–
23.6 µg/mL	O=c1c2c3c(sc2ncn1CCO)CCCC3 [AB00372624]	> 25 µg/mL	–
23.4 µg/mL	S=C(c1ccc(OCc2cccc3ccccc23)cc1)N1CCOCC1 [AB00362891]	> 25 µg/mL	–
29.9 µM	COc1cc(SC)ccc1C(=O)Nc1ccc(C(=O)NC2CC2)cc1 [AB00797753]	> 50 µM	–
19.2 µg/mL	CCOC(=O)c1ccc(NC(=O)NC(C)C2CCCO2)cc1 (centres unmarked) [AB00349705]	> 25 µg/mL	–
